Measured values: patent US20230372318A1, “METHODS FOR TREATING A SUBJECT HAVING MULTIPLE SYSTEM ATROPHY” (Theravance Biopharma R&D IP, LLC, priority 2022, published 2023)

What was measured:
[1] = test system: heart rate (HR) and mean arterial pressure (MAP); assay: Cardiovascular model in anesthetized rat: intrinsic effect on MAP and HR; assay type: in vivo; details: anesthetized rats
Method: These studies were conducted to assess the effect of a single administration of ampreloxetine on heart rate (HR) and mean arterial pressure (MAP) in anesthetized rats. Using this cardiovascular model, the intrinsic effect on HR and the inhibition of tyramine pressor response were evaluated as surrogate measures that reflect the ability of ampreloxetine to inhibit norepinephrine transporters in the periphery.
Normotensive male Sprague-Dawley rats weighing between 250-350 g were anesthetized with an intraperitoneal injection (IP) of thiobutabarbital (Inactin). All animals were kept under complete anesthesia (i.e., absence of response to toe pinch test) for the surgery and for the duration of the study. The right common carotid artery and jugular vein were isolated and catheterized. The trachea was intubated to keep the airway open during the study. After completion of surgery, the arterial catheter was connected to a pressure transducer and baseline blood pressure [Systolic (SBP), Mean Arterial (MAP) and Diastolic (DBP)] and heart rate (HR) were recorded using the Notocord-HEM data acquisition system. Following at least 60 min of baseline (i.e., the last 10 min was stable), vehicle (10% Tween20, 2 mL/kg, IP) was administered and any potential effect was monitored for at least 10 min. After this period, rats were injected with either vehicle or ampreloxetine ([…], 2 mL/kg, IP) and changes in MAP and HR were monitored for 25 min. Rats were then challenged intravenously via the jugular vein catheter, with non-cumulative bolus doses of tyramine (0.03, 0.1, 0.3, and 1 mg/kg, 1 mL/kg, IV) given at 5 min intervals. After the last dose of tyramine, data acquisition continued for another 10 min before the experiment was terminated. In a separate group of animals, blood was collected to assess the concentration of ampreloxetine in plasma at 15 min and 60 min after dosing. Free plasma concentrations obtained from 15 min were used to construct the concentration response curve (CRC) to MAP and HR while concentrations from 60 min were used for the tyramine CRC. Animals were euthanized by carbon dioxide asphyxiation followed by thoracotomy.
Intrinsic hemodynamic effects were reported as the maximum change in MAP or HR induced by ampreloxetine before tyramine challenge. Inhibition of tyramine effect was normalized to the response to 1 mg/kg dose of tyramine in the vehicle control group. Concentration response curves (CRCs) of the change in MAP, HR and inhibition of tyramine response were analyzed through iterative curve fitting to a logistic equation using Prism 5.00™ (GraphPad, Inc.). The equation used was as follows:
Y=(Bottom+Top−Bottom)/(1+10^((Log EC50−X)*HillSlope)) […]

human recombinant DAT = biological target: T1, human recombinant DAT (Homo sapiens, UniProt Q01959); assay: Neurotransmitter uptake inhibition, [3H]-DA, hDAT cells; assay type: cell-based; details: mean, 3 to 9 experiments
T1 construct: expressed in transfected cells; host or cells: CHO-K1
Source text: (§1) The in vitro pharmacology of ampreloxetine at human recombinant and rat native monoamine transporters was characterized as described in Smith et al., Inter. J. Neuropsychopharmcol. (2015) 1-11; and Tsuruda et al., J. Pharmacol. Toxicol. Meth. (2010) 61:192-204. See also, e.g., U.S. Pat. Nos. 8,304,432 B2 and 8,304,433 B2. Radioligands were sourced commercially (Perkin Elmer LifeSciences or GE Healthcare Life Sciences).
(§2) Briefly, membranes prepared from HEK293 (Human Embryonic Kidney 293) or CHO-K1 (Chinese Hamster Ovary-K1) cells stably transfected with human recombinant SERT (HEK293-hSERT), NET (HEK293-hNET), or DAT (CHO-K1-hDAT) were incubated for 1 hr at 22° C. in the absence, or presence, of 4-[2-(2,4,6-trifluorophenoxymethyl)phenyl]piperidine and [^3H]-citalopram (1.0 nM) for SERT, [^3H]-nisoxetine (2.0 nM) for NET, and [^3H]-WIN35428 (3.0 nM) for DAT in 50 mM Tris-HCl, 120 mM NaCl, 5 mM KCl, 0.025% BSA, 100 μM ascorbic acid, pH 7.4. Rat cortical membrane preparations were incubated with [^3H]-citalopram (2.0 nM) for SERT or [^3H]-nisoxetine (4.0 nM) for NET for 1 hr at 22° C. […] Binding and uptake assays were terminated by rapid filtration and radioactivity determined by liquid scintillation spectroscopy. […] Selectivity for NET (rounded to one significant figure) was determined as follows: […]

rat native SERT = biological target: T2, rat native SERT (Rattus norvegicus, UniProt P31652); assay: Radioligand binding, [3H]-citalopram, rat cortical membranes; details: mean (95% confidence intervals)
T2 construct: human recombinant and rat native monoamine transporters; from tissue; host or cells: rat cerebral cortex (membranes; synaptosomes)
Source text: as §1, §2

[2] = test system: subjects with symptomatic nOH; details: cited from earlier work

T2 sequence (P31652 whole entry): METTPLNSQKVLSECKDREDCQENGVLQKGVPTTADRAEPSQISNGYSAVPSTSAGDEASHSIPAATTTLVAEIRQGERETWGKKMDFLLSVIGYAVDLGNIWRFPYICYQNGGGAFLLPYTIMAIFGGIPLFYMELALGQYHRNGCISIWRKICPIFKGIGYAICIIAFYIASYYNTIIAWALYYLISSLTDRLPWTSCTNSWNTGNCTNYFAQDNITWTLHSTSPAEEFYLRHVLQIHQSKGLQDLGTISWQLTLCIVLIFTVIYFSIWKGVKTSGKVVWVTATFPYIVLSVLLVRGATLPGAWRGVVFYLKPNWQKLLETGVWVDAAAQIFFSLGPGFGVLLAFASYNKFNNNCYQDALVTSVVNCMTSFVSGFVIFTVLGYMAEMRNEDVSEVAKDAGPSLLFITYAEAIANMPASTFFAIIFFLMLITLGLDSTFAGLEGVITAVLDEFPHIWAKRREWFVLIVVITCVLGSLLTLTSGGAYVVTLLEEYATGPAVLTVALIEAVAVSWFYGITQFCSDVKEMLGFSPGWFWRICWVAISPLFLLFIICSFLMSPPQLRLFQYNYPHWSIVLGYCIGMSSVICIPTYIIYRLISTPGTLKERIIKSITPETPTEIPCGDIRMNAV
T1 sequence (Q01959 whole entry): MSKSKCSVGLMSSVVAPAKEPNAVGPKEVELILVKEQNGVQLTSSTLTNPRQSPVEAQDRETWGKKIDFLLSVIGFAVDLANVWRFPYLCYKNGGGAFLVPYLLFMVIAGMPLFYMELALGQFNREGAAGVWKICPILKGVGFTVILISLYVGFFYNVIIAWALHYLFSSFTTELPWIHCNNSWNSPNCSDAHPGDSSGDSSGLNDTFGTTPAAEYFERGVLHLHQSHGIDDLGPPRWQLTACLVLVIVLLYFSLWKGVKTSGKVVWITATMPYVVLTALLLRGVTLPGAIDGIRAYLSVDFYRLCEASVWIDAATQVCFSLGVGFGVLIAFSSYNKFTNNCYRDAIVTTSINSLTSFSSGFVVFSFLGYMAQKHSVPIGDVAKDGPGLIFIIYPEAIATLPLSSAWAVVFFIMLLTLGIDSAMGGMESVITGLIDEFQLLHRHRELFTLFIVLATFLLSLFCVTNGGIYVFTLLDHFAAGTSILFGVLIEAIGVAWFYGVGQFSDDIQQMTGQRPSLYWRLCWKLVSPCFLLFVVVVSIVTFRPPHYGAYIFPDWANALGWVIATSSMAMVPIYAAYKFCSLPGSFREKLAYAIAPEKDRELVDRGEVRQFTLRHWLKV

Compound: Fc1cc(F)c(OCc2ccccc2C2CCNCC2)c(F)c1 [Ampreloxetine, 4-[2-(2,4,6-trifluorophenoxymethyl)phenyl]piperidine]
- Effect on MAP and HR ([1]; 0.01-30 mg/kg IP): dose dependently increased MAP and HR
- Maximum change in HR ([1]; 0.01-30 mg/kg IP): 28.1 (22.4-33.7) bpm
- Maximum change in MAP ([1]; 0.01-30 mg/kg IP): 13.2 (4.4-22.1) mm Hg
- HR potency (HR EC25), free plasma concentration giving 25 bpm change in HR ([1]; IP, free plasma concentration at 15 min): 8.6 nM
- Neurotransmitter Uptake Inhibition: pIC50, DAT (human recombinant DAT): 6.8
- Transporter Binding: pKi, SERT (rat native SERT): 8.5 (8.3, 8.6)
- Improvement in standing time ([2]; Part A, 4 hours after dosing at 10 mg): approximately 100 seconds
- Dose response of single ascending doses ([2]; Part A, up to 20 mg): no dose response was observed
- SBP following 3 minutes of standing ([2]; Part B, up to 15 mg, 4- and 7-hours post-dose): sustained increase in SBP over baseline
- Improvement from baseline of at least 2 points in OHSA #1 score ([2]; Part C, open-label 3-20 mg once-daily up to 20 weeks): A large proportion of subjects met this endpoint
